The subject of this assay is HCV replicon cells. As to the kind of experiment: Cell-based HCV Replicon Assay. The conditions noted are these: Hepatitis C virus, 72 h; HCV replicon RNA level by real time PCR (Taqman), cells harvested on day 3; EC90 = concentration to achieve ΔCT=3.2 over baseline. How it is done: Assays Cell-based HCV Replicon Assay
To measure cell-based anti-HCV activity of the compounds of the present invention, replicon cells were seeded at 5000 cells/well in 96-well collagen I-coated Nunc plates in the presence of the compound of the invention. […] The final concentration of DMSO was 0.5%, fetal bovine serum was 10%, in the assay media. […] The replicon RNA level was measured using real time PCR (Taqman assay). The amplicon was located in 5B. […] GAPDH RNA was used as endogenous control and was amplified in the same reaction as NS5B (multiplex PCR) using primers and VIC-labeled probe recommended by the manufacturer (PE Applied Biosystem). The real-time RT-PCR reactions were run on ABI PRISM 7900HT Sequence Detection System using the following program: 48° C. for 30 min, 95° C. for 10 min, 40 cycles of 95° C. for 15 sec, 60° C. for 1 min. The ΔCT values (CT5B-CTGAPDH) were plotted against the concentration of test compound and fitted to the sigmoid dose-response model using GraphPad PRISM software. EC50 was defined as the concentration of inhibitor necessary to achieve ΔCT=1 over the projected baseline; EC90 the concentration necessary to achieve ΔCT=3.2 over the baseline. Alternatively, to quantitate the absolute amount of replicon RNA, a standard curve was established by including serially diluted T7 transcripts of replicon RNA in the Taqman assay. All Taqman reagents were from PE Applied Biosystems. Such an assay procedure was described in detail in e.g. Malcolm et al., Antimicrobial Agents and Chemotherapy 50: 1013-1020 (2006).

As for `Nc1nc(Cl)c(/C=C/c2cc(F)cc(F)c2)c(N[C@@H]2C[C@H](CO)[C@@H](O)[C@H]2O)n1` [compound 4], the EC90 (usually the concentration at which the effect reaches the 90% level) was no more than 5 µM.

`Nc1nc(Cl)c(/C=C/c2ccc(F)c(F)c2)c(N[C@@H]2C[C@H](CO)[C@@H](O)[C@H]2O)n1` [compound 6]: the EC90 is no more than 5 µM.

Turning to `Nc1nc(Cl)c(/C=C/c2cccc(F)c2F)c(N[C@@H]2C[C@H](CO)[C@@H](O)[C@H]2O)n1` [compound 9], the EC90 is no more than 5 µM.

`Nc1nc(Cl)c(/C=C/c2cccc(Oc3ccccc3)c2)c(N[C@@H]2C[C@H](CO)[C@@H](O)[C@H]2O)n1` [compound 10] returned an EC90 of no more than 5 µM.

As for `Cc1ccccc1/C=C/c1c(Cl)nc(N)nc1N[C@@H]1C[C@H](CO)[C@@H](O)[C@H]1O` [compound 13], the 90% effect concentration (EC90) is greater than 5 µM.

On to `Nc1nc(Cl)c(/C=C/c2ccccc2F)c(N[C@@H]2C[C@H](CO)[C@@H](O)C2)n1` [compound 15], for which the EC90 is greater than 5 µM.

`CSc1nc(N)nc(N[C@@H]2C[C@H](CO)[C@@H](O)[C@H]2O)c1/C=C/c1ccccc1` [compound 16]: the 90% effect concentration (EC90) was greater than 5 µM.

`Nc1nc(Cl)c(/C=C/c2ccccc2Cl)c(N[C@H]2C=C[C@@H](CO)C2)n1` [compound 17] came in with an EC90 greater than 5 µM.
